According to publication PMC5405622 (Drug Metabolism Letters, 2016):
Where “and” joins values, the source holds several entries; their conditions need not be identical. Equal entries are not always repeated. Where two headings read alike, the source gives them in different places.

Key:
[1] = read-out: Plasma concentration at Cmax; cited from earlier work
mouse hepatocytes = experiment: Metabolism of GNE1 in mouse hepatocytes with or without ABT; format: in vitro ADME; conditions: ABT 500 μM, GNE1 5 μM
[2] = Intrinsic clearance in rat hepatocytes; format: in vitro ADME; conditions: rat hepatocytes 0.5 million cells/mL, 0.5 μM, scaled
MDCK parent cells = experiment: MDCK permeability and efflux; format: in vitro ADME; conditions: for MDCK A→B Papp: apical to basolateral
[3] = Intrinsic clearance in rat liver microsomes; format: in vitro ADME; conditions: rat liver microsomes 0.5 mg/mL, 0.5 μM, scaled
[4] = Intrinsic clearance in human hepatocytes; format: in vitro ADME; conditions: human hepatocytes 0.5 million cells/mL, 0.5 μM, scaled
[5] = Intravenous bolus and infusion pharmacokinetics in Sprague-Dawley rats; format: in vivo, rat; conditions: for Clearance relative to hepatic blood flow: dosed in rat; for Plasma CL: n = 3; for In vivo rat CLp IV bolus: plasma
[6] = Single-pass isolated perfused rat liver; format: in vitro ADME; conditions: for Propranolol (cassette) ER: propranolol 2 to 4 μM
Oct1/2 = experiment: Blood clearance in Oct1/2 double KO and wild-type mice with or without ABT; format: in vivo, mouse; conditions: for Reduction of blood clearance by ABT: ABT 100 mg/kg oral 2 h before GNE1 2 mg/kg IV
[7] = not given; remark: listed apart in the source
Log D at pH 7.4 = format: physicochemical; conditions: octanol/buffer
[8] = test system: cryo-preserved rat hepatocytes; conditions: cited from earlier work
Unbound fraction in rat = format: in vitro ADME
[9] = Unbound fraction in liver perfusate and liver homogenate; format: in vitro ADME, rat
Kinetic solubility = format: physicochemical
[10] = Intrinsic clearance in human liver microsomes; format: in vitro ADME; conditions: human liver microsomes 0.5 mg/mL, 0.5 μM, scaled
PAK1 = PAK1 (Homo sapiens, UniProt Q13153); experiment: PAK1 inhibition constant; format: biochemical; conditions: read-out: PAK1 Ki
Chain of PAK1 (Q13153 whole entry): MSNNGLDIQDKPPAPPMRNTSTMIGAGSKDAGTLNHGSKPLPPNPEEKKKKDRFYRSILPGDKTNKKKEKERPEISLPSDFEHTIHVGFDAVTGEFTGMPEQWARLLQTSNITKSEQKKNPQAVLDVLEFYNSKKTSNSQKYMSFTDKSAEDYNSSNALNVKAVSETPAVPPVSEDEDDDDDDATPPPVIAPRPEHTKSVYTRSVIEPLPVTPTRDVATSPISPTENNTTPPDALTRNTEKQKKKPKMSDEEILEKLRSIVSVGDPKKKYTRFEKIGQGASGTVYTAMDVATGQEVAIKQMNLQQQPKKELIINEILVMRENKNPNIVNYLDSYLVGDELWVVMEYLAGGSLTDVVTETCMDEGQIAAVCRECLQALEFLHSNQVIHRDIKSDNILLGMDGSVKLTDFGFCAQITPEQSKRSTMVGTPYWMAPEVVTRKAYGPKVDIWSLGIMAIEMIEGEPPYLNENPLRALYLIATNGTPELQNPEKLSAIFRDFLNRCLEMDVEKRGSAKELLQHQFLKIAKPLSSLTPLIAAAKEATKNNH

cytochrome P450 (rat S9) = experiment: NADPH-dependent; format: in vitro ADME; conditions: S9 2 mg/mL, NADPH 1 mM
[11] = test system: N-acetyltransferase (rat S9); experiment: Acetyl-CoA-dependent N-acetylation in rat liver S9; format: in vitro ADME; conditions: S9 2 mg/mL, acetyl-CoA 1 mM
propranolol metabolism = experiment: In vitro inhibition of propranolol metabolism by quinine; format: in vitro ADME; conditions: quinine 1-10 micromolar, in vitro (data not shown)

Nn1nnc2ccccc21 [ABT, 1-aminobenzotriazole]
Cmax [1]: 752 µM | Inhibition of oxidative and N-acetylation metabolism of GNE1 (mouse hepatocytes): completely inhibited

N[C@H]1CC[C@H](CNc2ncc(Cl)c(Nc3cc(C4CC4)[nH]n3)n2)CC1 [GNE1, N^2-(((1r,4r)-4-aminocyclohexyl)methyl)-5-chloro-N^4-(5-cyclopropyl-1H-pyrazol-3-yl)pyrimidine-2,4-diamine]
RH CLint [2]: 34 mL/min/kg | MDCK efflux ratio (MDCK parent cells): 43 | MDCK A→B Papp (MDCK parent cells): 0.1 ×10⁻⁶ cm/s | RLM CLint [3]: 6.1 mL/min/kg | HH CLint [4]: 2.4 mL/min/kg | Total amount of GNE1 recovered in urine over 24 hours (intact rats (no bile collection), % of dose): 16% and 15.6% and 15% | Dose recovery of unchanged GNE1 in urine (intact rats, 0-8 h (one value across 0-4h and 4-8h)): 8.5 ± 2.3 % of Total Dosed | Dose recovery of unchanged GNE1 in urine (intact rats, 8-24h): 7.1 ± 2.0 % of Total Dosed | Dose recovery of unchanged GNE1 in urine (intact rats, 24-48h): <1 % of Total Dosed | Dose recovery of unchanged GNE1 in feces (intact rats, 24-48h (72 h experiment)): 8.4 ± 2.9 % of Total Dosed | Total Recovery (24–72 h) of unchanged GNE1 (intact rats, 24–72 h): 8.4 % of Total Dosed | Dose recovery of unchanged GNE1 in feces (intact rats, 48-72h): <1 % of Total Dosed | Dose recovery of unchanged GNE1 in urine (intact rats, 48-72h): <1 % of Total Dosed | Recovery of GNE1 in feces during 0–24 hours (intact rats, 72 h collection experiment): up to 91 % of Total Dosed | Total Recovery of unchanged GNE1 (intact rats, up to 24 hours): 93 % of Total Dosed | N-acetylation as share of total dose (rat, IV): about 10% | Clearance relative to hepatic blood flow [5]: greater than hepatic blood flow | CLB (biliary clearance) ([5]; rat, IV bolus, 2 mg/kg): 21.5 ± 6.20 mL/min/kg | CLR (renal clearance) ([5]; rat, IV bolus, 2 mg/kg): 49.7 ± 3.84 mL/min/kg | Terminal half-life ([5]; rat, IV bolus, 2 mg/kg): 1.32 ± 0.43 h | Vss ([5]; rat, IV bolus, 2 mg/kg): 20.5 ± 1.92 L/kg | Plasma CL ([5]; rat, IV bolus, 2 mg/kg): 216 ± 53.0 mL/min/kg | In vivo rat CLp IV bolus ([5]; rat, IV bolus): 216 mL/min/kg | CLR (renal clearance) ([5]; rat, IV infusion 0.57 mg/kg/h): 20 ± 1.2 mL/min/kg and 20.2 ± 1.22 mL/min/kg | Terminal half-life ([5]; rat, IV infusion 0.57 mg/kg/h): 0.74 ± 0.10 h | Vss ([5]; rat, IV infusion 0.57 mg/kg/h): 4.2 ± 1.2 L/kg and 4.21 ± 1.16 L/kg | Plasma CL ([5]; rat, IV infusion 0.57 mg/kg/h to 90% of steady state): 121 ± 4.35 mL/min/kg | GNE1 hepatic ER ([6]; GNE1 Cin = 0.3 μM with Quinine (10 μM)): 0.36 | GNE1 hepatic ER ([6]; GNE1 Cin = 0.3 μM, flow 12 mL/min): 0.78 | GNE1 hepatic ER ([6]; GNE1 Cin = 8 μM): 0.41 | Perfusate Cout ([6]; end of perfusion, Cin = 0.3 μM): 0.07 µM | Total liver concentration of GNE1 ([6]; end of perfusion, Cin = 0.3 μM): 8 µM | Biliary clearance, fold lower than calculated perfusate clearance ([6]; isolated perfused rat liver, Cin 0.3 μM): about 26 fold | Biliary clearance ([6]; isolated perfused rat liver, GNE1 Cin = 0.3 μM): 0.7 mL/min/kg | Biliary clearance ([6]; isolated perfused rat liver, GNE1 Cin = 0.3 μM with Quinine (10 μM)): 0.046 mL/min/kg | Biliary clearance ([6]; isolated perfused rat liver, GNE1 Cin = 8 μM): 0.23 mL/min/kg | kpu,u (intracellular to extracellular ratio of unbound concentrations) ([6]; liver/perfusate, Cin = 0.3 μM): 3.8 | Biliary clearance as share of total perfusate clearance ([6]; multiple IPL experiments): less than 5% | Reduction of blood clearance by ABT (Oct1/2; Oct1/2 double KO mice): 28.2% | Average change of blood clearance between wild-type and transporter KO mice (Oct1/2; regardless of ABT treatment): 56% | Average overall decrease of blood clearance by ABT (Oct1/2; wild-type and double KO mice averaged): 24% | Reduction of blood clearance by ABT (Oct1/2; wild-type mice): 20.5% | Fecal recovery of unchanged GNE1 over 24 hours ([7]; BDC rats): 24% | Dose recovery of unchanged GNE1 in bile ([7]; BDC rats, 0-4h): 7.8 ± 1.2 % of Total Dosed | Dose recovery of unchanged GNE1 in urine ([7]; BDC rats, 0-4h): BQL | Dose recovery of unchanged GNE1 in feces ([7]; BDC rats, 0-8h): 5.8 ± 4.2 % of Total Dosed | Dose recovery of unchanged GNE1 in bile ([7]; BDC rats, 4-8h): 2.5 ± 0.9 % of Total Dosed | Dose recovery of unchanged GNE1 in urine ([7]; BDC rats, 4-8h): 30 % of Total Dosed and 30 ± 1.1 % of Total Dosed | Dose recovery of unchanged GNE1 in bile ([7]; BDC rats, 8-24h): 3.9 ± 1.8 % of Total Dosed | Dose recovery of unchanged GNE1 in feces ([7]; BDC rats, 8-24h): 18 % of Total Dosed and 18 ± 4.7 % of Total Dosed | Dose recovery of unchanged GNE1 in urine ([7]; BDC rats, 8-24h): 2.8 ± 1.0 % of Total Dosed | Dose recovery of unchanged GNE1 in bile ([7]; BDC rats, 24-48h): <1 % of Total Dosed | Dose recovery of unchanged GNE1 in feces ([7]; BDC rats, 24-48h): 2.2 ± 1.4 % of Total Dosed | Dose recovery of unchanged GNE1 in urine ([7]; BDC rats, 24-48h): <1 % of Total Dosed | Total Recovery (24–72 h) of unchanged GNE1 ([7]; BDC rats, 24–72 h): 2.2 % of Total Dosed | Dose recovery of unchanged GNE1 in bile ([7]; BDC rats, 48-72h): 0 % of Total Dosed | Dose recovery of unchanged GNE1 in feces ([7]; BDC rats, 48-72h): <1 % of Total Dosed | Dose recovery of unchanged GNE1 in urine ([7]; BDC rats, 48-72h): <1 % of Total Dosed | Overall biliary excretion of unchanged GNE1 ([7]; BDC rats, 24 h): ~14% | Recovery of GNE1 in feces during 0–24 hours ([7]; BDC rats, 72 h collection experiment): 31 % of Total Dosed | Percentage of GNE1 detected in urine ([7]; BDC rats, compared with intact rats): 30% | Total Recovery of unchanged GNE1 ([7]; BDC rats, up to 24 hours): 71 % of Total Dosed | Biliary clearance as share of total clearance ([7]; cannulated rats, IV): approximately 14% | Renal clearance as share of total clearance ([7]; rats, IV): ~16% | Log DpH=7.4 (Log D at pH 7.4): 0.83 | Uptake rate (CLint, influx) [8]: 11.1 mL/min/g of liver | fu rat (Unbound fraction in rat): 0.16 | fu perfusate ([9]; isolated perfused liver perfusate (4% BSA, 20% bovine red blood cells)): 0.3 | fu in liver (corrected) ([9]; liver homogenate, corrected for dilution): 0.3/0.01 | Kinetic solubility (Kinetic solubility): 157 µM | HLM CLint [10]: 4.5 mL/min/kg | Ki (PAK1): 26 nM

NC1CCN(c2nc(Nc3cc(C4CC4)[nH]n3)c3sccc3n2)CC1 [GNE2, 2-(4-aminopiperidin-1-yl)-N-(5-cyclopropyl-1H-pyrazol-3-yl) thieno [[3],2-d]pyrimidin-4-amine]
RH CLint [2]: 91 mL/min/kg | MDCK efflux ratio (MDCK parent cells): 13.5 | MDCK A→B Papp (MDCK parent cells): 0.4 ×10⁻⁶ cm/s | RLM CLint [3]: 62 mL/min/kg | HH CLint [4]: 7.6 mL/min/kg | CLint of P450 metabolism in rat S9 (cytochrome P450 (rat S9)): <10 mL/min/kg | Clearance relative to hepatic blood flow [5]: greater than hepatic blood flow | In vivo rat CLp IV bolus ([5]; rat, IV bolus): >>hepatic blood flow | CLint of N-acetylation in rat S9 [11]: 337 mL/min/kg | Log DpH=7.4 (Log D at pH 7.4): 0.48 | fu rat (Unbound fraction in rat): 0.22 | Kinetic solubility (Kinetic solubility): 72 µM | HLM CLint [10]: 8.6 mL/min/kg | Ki (PAK1): 22 nM

N[C@H]1CC[C@H](CNc2nccc(Nc3cc(C4CC4)[nH]n3)n2)CC1 [GNE3, N^2-(((1r,4r)-4-aminocyclohexyl)methyl)-N^4-(5-cyclo-propyl-1H-pyrazol-3-yl)pyrimidine-2,4-diamine]
RH CLint [2]: 10 mL/min/kg | MDCK efflux ratio (MDCK parent cells): 6.2 | MDCK A→B Papp (MDCK parent cells): 0.5 ×10⁻⁶ cm/s | RLM CLint [3]: 8.3 mL/min/kg | HH CLint [4]: 4.5 mL/min/kg | CLint of P450 metabolism in rat S9 (cytochrome P450 (rat S9)): <10 mL/min/kg | Clearance relative to hepatic blood flow [5]: greater than hepatic blood flow | In vivo rat CLp IV bolus ([5]; rat, IV bolus): 160 mL/min/kg | CLint of N-acetylation in rat S9 [11]: 21 mL/min/kg | Log DpH=7.4 (Log D at pH 7.4): -0.2 | fu rat (Unbound fraction in rat): 0.25 | Kinetic solubility (Kinetic solubility): 136 µM | HLM CLint [10]: 9.1 mL/min/kg | Ki (PAK1): 26 nM

CC(C)NCC(O)COc1cccc2ccccc12 (centres unmarked) [propranolol, reference compound]
Propranolol (cassette) ER ([6]; cassette with GNE1 0.3 μM and Quinine (10 μM)): 0.45 | Propranolol (cassette) ER ([6]; cassette with GNE1 Cin = 0.3 μM): > 0.95 | Propranolol (cassette) ER ([6]; cassette with GNE1 Cin = 0.3 μM, listed as Propranolol): >0.95 | Propranolol (cassette) ER ([6]; cassette with GNE1 Cin = 8 μM): 0.91

C=C[C@H]1C[N@@]2CC[C@H]1C[C@H]2[C@H](O)c1ccnc2ccc(OC)cc12 [quinine]
Effect on propranolol metabolism (propranolol metabolism): inhibit propranolol metabolism
